The record followed here is patent publication US20180000778A1, “SMALL MOLECULE ANTAGONISTS OF DUSP5 AND METHODS OF USE” (THE MEDICAL COLLEGE OF WISCONSIN, INC., priority 2015, published 2018).

For one experiment, the target named is mutant DUSP5 (Homo sapiens, UniProt Q16690, S147P). Description: Restoration of mutant DUSP5 function.
For experiment [1], the target named is T1, GST-tagged full length DUSP5 (Homo sapiens, UniProt Q16690).
T1 construct: GST-tagged full length DUSP5, when pNPP was used as a substrate
Description: pNPP assay with GST-tagged full length DUSP5. The class given is biochemical. Conditions: full length DUSP5, pNPP as substrate; listed as CSD3-2320.

The target of another experiment is CDC25A (Homo sapiens, UniProt P30304). Put plainly: Phosphatase profiling, Biomol Green. The class given is biochemical. Conditions: 30 μM, triplicate; positive = activation. On the procedure:
(§1) Assays were performed to profile compound CSDDD2320 against 21 phosphatase targets at 1 concentration (30 μM) in triplicate measurements. The aim was to identify whether the compound can affect the activity of the various phosphatase targets selected.
(§2) The PTPN6 (SHP1), PTPRF (LAR), PP1A, PP1B, PP2A, PTPN12(PTP-PEST), PTPN11(SHP2), CDC25A, CDC25B, CDC25C, PP2Ca, and PP2Cg phosphatase activity was determined by performing assays at 37° C. for 15 minutes in a final volume of 50 μl according to the following assay reaction recipe:
(§3) Component 1. 10 μl of diluted active protein phosphatase
(§4) Component 2. 5 μl of 1 mM tyrosine phosphopeptide-2 substrate (for PTPN6, PTPRF, PTPN12, and PTPN11) or threonine phosphopeptide substrate (for PP1A, PP1B, PP2A and PP2Cg) or PI(3,4,5)P3 substrate (for PTEN) or OMFP substrate (for CDC25A, CDC25B and CDC25C)
(§5) Component 3. 25 μl of phosphatase assay buffer
(§6) Component 4. 10 μl of compound (150 μM) or 10% DMSO
(§7) The assay was started by incubating the reaction mixture at 37° C. for 15 minutes. After the 15 minutes incubation period, the assay was terminated by the addition of 100 μl of Biomol Green reagent. The absorbance of the reaction solution was measured in a spectrophotometer at 650 nm. Blank control was set up that included all the assay components except the addition of the tyrosine phosphopeptide-2 substrate or related substrate (replace with equal volume of phosphatase assay buffer). The corrected activity for various phosphatase targets was determined by removing the blank control value.

Another experiment concerns the target CDC25B (Homo sapiens, UniProt P30305). Put plainly: Phosphatase profiling, Biomol Green. Format: biochemical. Conditions: 30 μM, triplicate. On the procedure: as §1, §2, §3, §4, §5, §6, §7
The target of a further experiment is CDC25C (Homo sapiens, UniProt P30307). Put plainly: Phosphatase profiling, Biomol Green. Format: biochemical. Particulars: 30 μM, triplicate; positive = activation. On the procedure: as §1, §2, §3, §4, §5, §6, §7
Another experiment has as its target PP1A (Homo sapiens, UniProt P62136). Put plainly: Phosphatase profiling, Biomol Green. The class given is biochemical. Particulars: 30 μM, triplicate; negative = inhibition. On the procedure: as §1, §2, §3, §4, §5, §6, §7
In a further experiment the target is PP1B (Homo sapiens, UniProt P62140). Put plainly: Phosphatase profiling, Biomol Green. The class given is biochemical. Conditions: 30 μM, triplicate; negative = inhibition. On the procedure:
as §1, §2, §3, §4, §5, §6, §7

In the next experiment the test system is PP2A. Description: Phosphatase profiling, Biomol Green. Conditions: 30 μM, triplicate; negative = inhibition. The class given is biochemical. On the procedure: as §1, §2, §3, §4, §5, §6, §7
A further experiment has as its target PP2Ca (Homo sapiens, UniProt P35813). Put plainly: Phosphatase profiling, Biomol Green. Format: biochemical. Particulars: 30 μM, triplicate; negative = inhibition. On the procedure: as §1, §2, §3, §4, §5, §6, §7
The target of another experiment is PP2Cg (Homo sapiens, UniProt O15355). Put plainly: Phosphatase profiling, Biomol Green. Conditions: 30 μM, triplicate. Format: biochemical. On the procedure: as §1, §2, §3, §4, §5, §6, §7
For another experiment, the target named is PTPN11 (SHP2) (Homo sapiens, UniProt Q06124). Description: Phosphatase profiling, Biomol Green. Conditions: 30 μM, triplicate; positive = activation. Format: biochemical. On the procedure:
as §1, §2, §3, §4, §5, §6, §7

The next experiment concerns the target PTPN12 (PTP-PEST) (Homo sapiens, UniProt Q05209). Put plainly: Phosphatase profiling, Biomol Green. The class given is biochemical. Particulars: 30 μM, triplicate; negative = inhibition. On the procedure:
as §1, §2, §3, §4, §5, §6, §7

A further experiment addresses PTPN6 (SHP1) (Homo sapiens, UniProt P29350). Put plainly: Phosphatase profiling, Biomol Green. Format: biochemical. Conditions: 30 μM, triplicate; negative = inhibition. On the procedure:
as §1, §2, §3, §4, §5, §6, §7

A further experiment has as its target PTPRF (LAR) (Homo sapiens, UniProt P10586). Description: Phosphatase profiling, Biomol Green. The class given is biochemical. Particulars: 30 μM, triplicate. On the procedure:
as §1, §2, §3, §4, §5, §6, §7

Another experiment addresses T2, DUSP5 (PD)-WT (Homo sapiens, UniProt Q16690).
T2 construct: hexa-histidine (N); made in house; host or cells: E. coli BL21(DE3)
T2 sequence (Q16690 178-319): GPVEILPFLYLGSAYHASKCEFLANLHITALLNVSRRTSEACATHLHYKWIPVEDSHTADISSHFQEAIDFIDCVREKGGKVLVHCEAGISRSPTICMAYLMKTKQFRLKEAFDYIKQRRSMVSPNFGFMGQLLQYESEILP
Description: Phosphatase inhibition profiles (Table 4), initial rates. The class given is biochemical. Particulars: using ERK2 as substrate, read-out: IC50 DUSP5 (PD)-WT (mean ± SE).

Another experiment has as its target T3, PTPN1 (Homo sapiens, UniProt P18031).
T3 sequence (P18031 1-435): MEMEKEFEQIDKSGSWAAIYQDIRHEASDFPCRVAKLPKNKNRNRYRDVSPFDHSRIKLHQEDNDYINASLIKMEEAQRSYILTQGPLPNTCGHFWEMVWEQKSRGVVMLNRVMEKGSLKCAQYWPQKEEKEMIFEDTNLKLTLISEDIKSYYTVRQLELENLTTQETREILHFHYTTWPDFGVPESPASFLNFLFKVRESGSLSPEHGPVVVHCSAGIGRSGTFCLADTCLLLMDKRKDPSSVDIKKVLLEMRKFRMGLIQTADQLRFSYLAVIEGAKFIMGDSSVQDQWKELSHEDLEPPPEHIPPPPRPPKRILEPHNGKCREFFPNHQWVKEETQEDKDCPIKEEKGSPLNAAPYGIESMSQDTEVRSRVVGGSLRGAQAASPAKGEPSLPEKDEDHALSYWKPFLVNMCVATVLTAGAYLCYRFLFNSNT
Described as above. The class given is biochemical.

Values joined by “and” are separate entries in the source; they are usually repeats but may differ in a detail not shown here. Equal entries are not always repeated. Bounds are passed on as bounds.

What is called IC50 is the concentration that inhibits the measured activity by half.

T1 sequence (Q16690 whole entry): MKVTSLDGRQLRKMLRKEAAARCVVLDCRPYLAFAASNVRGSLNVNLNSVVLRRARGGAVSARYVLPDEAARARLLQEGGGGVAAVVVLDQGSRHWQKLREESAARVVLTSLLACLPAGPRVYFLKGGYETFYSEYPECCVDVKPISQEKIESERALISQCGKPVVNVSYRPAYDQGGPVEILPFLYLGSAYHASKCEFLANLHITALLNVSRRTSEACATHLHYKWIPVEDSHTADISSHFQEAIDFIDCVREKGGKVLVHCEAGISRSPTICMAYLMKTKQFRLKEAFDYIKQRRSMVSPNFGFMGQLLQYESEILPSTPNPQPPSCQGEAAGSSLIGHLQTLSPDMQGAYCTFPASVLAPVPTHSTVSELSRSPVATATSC
CDC25C, sequence (P30307 whole entry, species assumed): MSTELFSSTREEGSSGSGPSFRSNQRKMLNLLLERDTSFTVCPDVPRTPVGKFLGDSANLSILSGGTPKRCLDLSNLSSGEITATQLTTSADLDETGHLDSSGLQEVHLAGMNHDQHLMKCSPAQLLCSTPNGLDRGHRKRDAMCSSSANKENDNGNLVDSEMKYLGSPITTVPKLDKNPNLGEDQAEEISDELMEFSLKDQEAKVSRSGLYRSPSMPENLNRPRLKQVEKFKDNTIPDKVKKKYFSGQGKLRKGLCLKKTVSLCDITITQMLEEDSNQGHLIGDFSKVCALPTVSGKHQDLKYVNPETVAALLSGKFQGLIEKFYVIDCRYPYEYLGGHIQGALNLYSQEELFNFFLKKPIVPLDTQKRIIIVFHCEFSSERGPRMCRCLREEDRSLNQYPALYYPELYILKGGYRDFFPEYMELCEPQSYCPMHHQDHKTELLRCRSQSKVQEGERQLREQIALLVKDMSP
PTPN6 (SHP1), sequence (P29350 whole entry, species assumed): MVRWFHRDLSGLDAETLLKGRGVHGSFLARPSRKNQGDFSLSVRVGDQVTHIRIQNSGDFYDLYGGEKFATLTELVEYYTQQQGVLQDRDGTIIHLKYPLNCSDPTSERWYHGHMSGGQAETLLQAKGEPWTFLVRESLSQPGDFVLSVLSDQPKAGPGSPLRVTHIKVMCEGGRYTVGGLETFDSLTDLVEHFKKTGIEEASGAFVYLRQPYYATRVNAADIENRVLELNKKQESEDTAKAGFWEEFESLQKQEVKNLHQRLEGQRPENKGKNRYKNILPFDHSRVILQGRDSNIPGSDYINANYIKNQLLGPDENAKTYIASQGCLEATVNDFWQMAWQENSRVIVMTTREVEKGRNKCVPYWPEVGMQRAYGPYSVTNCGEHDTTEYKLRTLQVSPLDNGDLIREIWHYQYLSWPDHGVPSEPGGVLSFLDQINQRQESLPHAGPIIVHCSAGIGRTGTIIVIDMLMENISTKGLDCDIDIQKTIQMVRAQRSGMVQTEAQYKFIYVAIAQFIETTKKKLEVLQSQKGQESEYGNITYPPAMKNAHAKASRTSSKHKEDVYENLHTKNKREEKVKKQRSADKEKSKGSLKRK
PP1B, sequence (P62140 whole entry, species assumed): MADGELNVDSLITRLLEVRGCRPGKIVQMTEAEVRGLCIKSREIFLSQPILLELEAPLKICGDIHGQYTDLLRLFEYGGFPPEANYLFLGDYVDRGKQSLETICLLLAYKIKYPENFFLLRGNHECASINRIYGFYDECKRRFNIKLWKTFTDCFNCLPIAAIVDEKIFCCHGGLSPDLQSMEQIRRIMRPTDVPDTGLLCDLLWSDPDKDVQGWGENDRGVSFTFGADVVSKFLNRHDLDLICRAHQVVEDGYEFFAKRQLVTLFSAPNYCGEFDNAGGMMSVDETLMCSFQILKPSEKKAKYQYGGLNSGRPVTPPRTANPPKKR
PP2Cg, sequence (O15355 whole entry): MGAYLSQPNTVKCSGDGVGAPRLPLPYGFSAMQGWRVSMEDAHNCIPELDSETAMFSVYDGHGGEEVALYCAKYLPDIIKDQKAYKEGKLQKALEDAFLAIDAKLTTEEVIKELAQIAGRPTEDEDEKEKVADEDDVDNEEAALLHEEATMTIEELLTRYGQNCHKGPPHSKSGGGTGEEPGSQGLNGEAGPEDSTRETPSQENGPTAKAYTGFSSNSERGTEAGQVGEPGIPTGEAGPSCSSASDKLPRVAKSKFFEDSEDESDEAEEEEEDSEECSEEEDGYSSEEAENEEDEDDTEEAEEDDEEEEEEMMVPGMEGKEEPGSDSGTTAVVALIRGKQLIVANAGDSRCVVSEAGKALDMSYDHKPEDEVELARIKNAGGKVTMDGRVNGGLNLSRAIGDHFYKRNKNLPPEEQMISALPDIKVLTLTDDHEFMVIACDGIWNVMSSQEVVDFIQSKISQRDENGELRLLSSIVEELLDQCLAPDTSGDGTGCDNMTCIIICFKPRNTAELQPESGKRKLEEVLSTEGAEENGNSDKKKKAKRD
CDC25B, sequence (P30305 whole entry, species assumed): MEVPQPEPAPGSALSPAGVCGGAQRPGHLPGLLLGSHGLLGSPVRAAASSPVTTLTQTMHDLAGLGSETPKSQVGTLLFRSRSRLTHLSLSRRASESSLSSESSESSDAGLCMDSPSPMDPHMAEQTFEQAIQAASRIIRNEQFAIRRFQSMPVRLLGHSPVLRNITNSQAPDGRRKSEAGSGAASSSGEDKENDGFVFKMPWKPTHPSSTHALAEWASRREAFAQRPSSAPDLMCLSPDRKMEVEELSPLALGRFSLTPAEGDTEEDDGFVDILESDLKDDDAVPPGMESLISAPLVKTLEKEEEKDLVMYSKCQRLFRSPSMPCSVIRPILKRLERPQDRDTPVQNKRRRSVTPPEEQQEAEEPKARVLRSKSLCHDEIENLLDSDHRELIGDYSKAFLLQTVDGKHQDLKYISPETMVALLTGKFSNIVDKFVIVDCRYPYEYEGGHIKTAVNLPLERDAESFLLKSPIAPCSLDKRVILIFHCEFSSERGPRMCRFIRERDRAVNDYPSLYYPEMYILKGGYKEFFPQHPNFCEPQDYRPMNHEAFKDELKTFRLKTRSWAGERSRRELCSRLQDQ
PP1A, sequence (P62136 whole entry, species assumed): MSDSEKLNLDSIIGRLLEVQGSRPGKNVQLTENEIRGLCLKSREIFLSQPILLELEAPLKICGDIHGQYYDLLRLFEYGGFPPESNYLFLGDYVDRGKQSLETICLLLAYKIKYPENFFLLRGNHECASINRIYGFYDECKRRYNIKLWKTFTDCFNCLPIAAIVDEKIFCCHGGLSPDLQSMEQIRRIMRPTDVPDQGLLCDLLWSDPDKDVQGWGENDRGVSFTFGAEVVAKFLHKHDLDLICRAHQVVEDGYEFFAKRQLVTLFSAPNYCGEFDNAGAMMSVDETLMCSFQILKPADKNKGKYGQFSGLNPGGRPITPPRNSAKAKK
PTPN12 (PTP-PEST), sequence (Q05209 whole entry, species assumed): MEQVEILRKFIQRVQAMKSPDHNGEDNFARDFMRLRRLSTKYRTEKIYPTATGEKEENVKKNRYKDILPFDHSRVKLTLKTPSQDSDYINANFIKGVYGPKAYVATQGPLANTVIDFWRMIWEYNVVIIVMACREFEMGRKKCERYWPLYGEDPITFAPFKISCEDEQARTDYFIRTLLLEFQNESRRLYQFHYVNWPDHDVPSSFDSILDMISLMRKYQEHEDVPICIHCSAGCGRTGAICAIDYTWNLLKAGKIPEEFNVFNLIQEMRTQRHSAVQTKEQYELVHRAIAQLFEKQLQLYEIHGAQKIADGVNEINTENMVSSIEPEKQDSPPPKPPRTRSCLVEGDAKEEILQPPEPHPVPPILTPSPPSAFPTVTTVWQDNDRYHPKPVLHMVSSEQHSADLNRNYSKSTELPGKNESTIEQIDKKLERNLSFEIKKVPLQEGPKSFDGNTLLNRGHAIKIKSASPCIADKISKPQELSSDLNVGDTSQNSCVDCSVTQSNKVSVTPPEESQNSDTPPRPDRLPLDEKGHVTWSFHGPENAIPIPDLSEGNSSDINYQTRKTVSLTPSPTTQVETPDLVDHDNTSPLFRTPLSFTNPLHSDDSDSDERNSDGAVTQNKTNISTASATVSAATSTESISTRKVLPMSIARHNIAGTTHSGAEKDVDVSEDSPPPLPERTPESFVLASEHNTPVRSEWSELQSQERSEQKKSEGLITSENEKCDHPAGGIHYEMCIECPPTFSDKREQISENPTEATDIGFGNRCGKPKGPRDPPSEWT
PTPN11 (SHP2), sequence (Q06124 whole entry, species assumed): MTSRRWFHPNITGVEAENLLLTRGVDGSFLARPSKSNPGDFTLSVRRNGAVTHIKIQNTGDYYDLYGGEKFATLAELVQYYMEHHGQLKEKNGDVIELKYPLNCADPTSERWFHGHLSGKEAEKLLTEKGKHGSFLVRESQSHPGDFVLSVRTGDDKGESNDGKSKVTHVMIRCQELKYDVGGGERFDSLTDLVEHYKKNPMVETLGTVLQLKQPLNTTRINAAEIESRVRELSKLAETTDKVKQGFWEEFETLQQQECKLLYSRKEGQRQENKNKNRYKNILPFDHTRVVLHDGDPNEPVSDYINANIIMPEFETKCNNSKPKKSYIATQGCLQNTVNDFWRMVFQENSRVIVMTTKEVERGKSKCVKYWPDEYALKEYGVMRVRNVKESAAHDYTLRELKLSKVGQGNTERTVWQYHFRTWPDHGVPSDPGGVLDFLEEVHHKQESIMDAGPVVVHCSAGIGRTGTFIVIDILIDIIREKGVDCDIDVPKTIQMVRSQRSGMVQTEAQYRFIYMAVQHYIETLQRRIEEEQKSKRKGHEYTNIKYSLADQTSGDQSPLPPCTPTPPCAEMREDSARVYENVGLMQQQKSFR
mutant DUSP5, sequence (Q16690 whole entry S147P): as the sequence (Q16690 whole entry) above, with S147P counted along it

Regarding `O=S(=O)([O-])c1ccc2[nH]c3c(S(=O)(=O)[O-])cc(S(=O)(=O)[O-])cc3c2c1.[Na+].[Na+].[Na+]` [RR505, Carbazole-1,3,6-trisulfonic acid, Trisodium Salt], the “effect on mutant DUSP5 function” value at mutant DUSP5 is “appears to restore mutant DUSP5's function”.
Regarding `O=S(=O)(O)c1cc(O)c2c(S(=O)(=O)O)cccc2c1` [RR527], the IC50 was 563 µM and 561 µM in [1]; greater than 1000 µM on DUSP5 (PD)-WT. Also, the “% Change (activity change compared to control)” value is recorded as 7% at CDC25A; 0% on CDC25B; 4% at CDC25C; −3% at PP1A; −1% at PP1B; −3% in the experiment with PP2A. The “% Change (activity change compared to control)” value at PP2Ca is −7%; on PP2Cg it was 0%; at PTPN11 (SHP2) it was 4%; at PTPN12 (PTP-PEST), −1%; on PTPN6 (SHP1), −5%; on PTPRF (LAR), 0%. Further, the “IC50 PTPN1 (mean ± SE)” value at PTPN1 is “Does not inhibit”.
